Laboratory results as given in patent US6649618B2, “Substituted amidoalkyl-uracils and their use” (Bayer Aktiengesellschaft, priority 2000, dated 2003).
Like-named read-outs stand apart in the source and are kept apart here.

Key:
[1] = system: cytochrome P450; settings: Eriksson et al. 1996; cited from earlier work
[2] = Szabo and Dawson 1998; cited from earlier work
[3] = system: MHEC5-T cells; assay: Cell protection assay (in vitro), H2O2-induced cell death, Alamar blue; format: cell-based; settings: MHEC5-T endothelial cells, 3 mM H2O2, 5 hours
Experimental: 2) Test Description Cell Protection Assay (in vitro)
In accordance with a method described by Bowes [Bowes et al., Br. J. Pharmacol., 124, 1760-1766 (1998)], the ability of PARS inhibitors to protect cells against cell death induced by incubation with H2O2 is examined in a cell protection assay. Incubation of endothelial cells with H2O2 results in the generation of DNA strand breaks which in turn activate PARS, resulting in a drastic energy decrease in the cells and in cell death. Living cells are quantified by a fluorimetric redox indicator (Alamar blue), which is converted in the electron transport system of the mitochondria.
Specifically, 7500 MHEC5-T cells/well (DSM ACC 336; German collection of microorganisms and cell cultures) are sown in 4 replications on a 96-well plate. After 24 hours, the cells are incubated with 3 mM aqueous H2O2 solution and differing concentrations of the substances in the presence of 6% by volume of Alamar blue solution in the medium at 37° C. for 5 hours. The reference substance used is 10 μM 1,5-dihydroxyisoquinoline (DHCH) solution. After the incubation, the fluorescence is measured at an excitation wavelength of 530-560 nm and an emission wavelength of 590 nm. The percentage for the cell protection is calculated as the difference between the living cells treated only with H2O2 and the cells treated with H2O2 and PARS inhibitors. The internal standard used is 10 μM DHCH, which is defined as 100% protection. The results obtained for the other substances are compared to this value.
The EC50 values indicate the concentration at which 50% of maximum cell protection is reached, maximum protection by 10 μM DHCH being defined as 100%. DHCH has an EC50 value of 2 μM.

[4] = 50% of maximum protection, 10 μM DHCH defined as 100%, read-out: EC50, cell protection (in vitro)

Row | SMILES | melting point | EC50 [3, 4] | further results
1 | NC(=O)c1cccc(N)c1 [3-aminobenzamide] | – | – | inhibition of cytochrome P450 (unspecific PARS inhibitor) [1]: inhibits cytochrome P450
2 | Nc1ccc2oc(=O)ccc2c1I [5-iodo-6-amino-1,2-benzopyrone] | – | – | side-effects [2]: serious side-effects
3 | Oc1cccc2c(O)nccc12 [DHCH, 1,5-dihydroxyisoquinoline, reference compound] | – | – | EC50 ([3]; reference substance, read-out: EC50 value, cell protection): 2 µM
4 | O=C1CCCN1CCCn1c2c(c(=O)[nH]c1=O)CCCC2 [Example 1, 1-[3-(2-Oxo-1-pyrrolidinyl)propyl]-5,6,7,8-tetrahydro-2,4(1H,3H)-quinazolinedione] | 189 °C | – | –
5 | CN(CCCn1c2c(c(=O)[nH]c1=O)CSCC2)S(=O)(=O)c1ccccc1 [Example 2, N-[3-(2,4-Dioxo-3,4,7,8-tetrahydro-2H-thiopyrano[4,3-d]pyrimidin-1(5H)-yl)propyl]-N-methylphenylsulphonamide] | – | 0.5 µM | –
6 | O=c1[nH]c(=O)n(C2CCCC(NS(=O)(=O)c3ccc([N+](=O)[O-])cc3)C2)c2c1CCCC2 (centres unmarked) [Example 3, N-[3-(2,4-Dioxo-3,4,5,6,7,8-hexahydro-1(2H)-quinazolinyl)cyclohexyl]4-nitrobenzenesulphonamide] | > 240 °C | – | –
7 | O=c1ccc2cc(S(=O)(=O)NC3CCCC(n4c5c(c(=O)[nH]c4=O)CCCC5)C3)ccc2o1 (centres unmarked) [Example 51] | > 240 °C | – | –
8 | CN(CCCn1c2c(c(=O)[nH]c1=O)CCCC2)S(=O)(=O)c1cccnc1 [Example 55] | – | 0.4 µM | –
9 | CN(CCCn1c2c(c(=O)[nH]c1=O)CSCC2)S(=O)(=O)c1ccc2oc(=O)ccc2c1 [Example 57] | – | 0.3 µM | –
10 | CN(CCCn1c2c(c(=O)[nH]c1=O)CSCC2)S(=O)(=O)c1ccc(F)cc1 [Example 58] | – | 0.4 µM | –
11 | CN(CCCn1c2c(c(=O)[nH]c1=O)CSCC2)S(=O)(=O)c1cccnc1 [Example 59] | – | 0.25 µM | –
12 | CN(CCCn1c2c(c(=O)[nH]c1=O)CCCC2)S(=O)(=O)c1cccc2nsnc12 [Example 61] | 170 °C | 0.5 µM | –
13 | CN(CCCn1c2c(c(=O)[nH]c1=O)CCCC2)S(=O)(=O)c1c(Cl)nc2sccn12 [Example 62] | > 240 °C | – | –
14 | CC(=O)Nc1nc(C)c(S(=O)(=O)N(C)CCCn2c3c(c(=O)[nH]c2=O)CCCC3)s1 [Example 63] | > 240 °C | – | –
15 | CN(CCCn1c2c(c(=O)[nH]c1=O)CCCC2)S(=O)(=O)c1cn(C)cn1 [Example 65] | 128 °C | – | –
16 | CN(CCCn1c2c(c(=O)[nH]c1=O)CSCC2)S(=O)(=O)c1ccsc1[N+](=O)[O-] [Example 67] | – | 0.05 µM | –
